One assay concerns T-cell. Nature of the assay: IL-2 secretion from T-cells stimulated with anti-CD3 antibody alone (Biological Example 2). The class given is cell-based, human. The conditions noted are these: T-cell, read-out: IL-2 secretion Anti-CD3 stimulation; for fold induction at 1 µM: 1 μM Cbl-b inhibitor; for fold induction at 8 µM: 8 μM Cbl-b inhibitor.
Another assay concerns the target Cbl-b (Homo sapiens, UniProt Q13191). Nature of the assay: Cbl-b inhibition assay (Cbl-b activity assay, FRET, Biological Example 1; 100 mM NaCl, 60 nM Src kinase). The class given is biochemical. The settings on record: upper bound stated in text lists; read-out: IC50 values in the Cbl-b inhibition assay of Biological Example 1. Summed up:
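Inhibitor activity is measured as reduced terbium-to-fluorescein FRET between streptavidin-terbium on biotinylated Cbl-b and Bodipy-fluorescein ubiquitin carried by an irreversible UbcH5B-Ub conjugate, binding of which depends on Src phosphorylation of Cbl-b.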

Another assay addresses Cbl-b (residues 36-427) (Homo sapiens, UniProt Q13191). Nature of the assay: Cbl-b binding assay (SPR, Biacore T200). The conditions noted are these: 20° C., 1:1 binding model. In short, it runs like this:
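Steps: capture protein on NeutrAvidin surface; inject compound dilutions (8 or 10 points from 100 or 50 μM) 50 s; allow 90-180 s dissociation; regenerate 20 s with 0.3 M NaCl. Runs at 20° C in HEPES pH 7.5/100 mM NaCl/2% DMSO; 1:1 fitting.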
Background: SPR reads the build-up and loss of mass on a sensor chip optically.

The mark [1] stands for this setting: fold change over baseline, primary human total T-cells.
The mark [2] stands for this setting: Homo sapiens, fold change over baseline (anti-CD3/anti-CD28 stimulated T-cells without inhibitor).

Read-outs that look alike come from different tables or passages of the source.

Sequence of Cbl-b (Q13191 36-427): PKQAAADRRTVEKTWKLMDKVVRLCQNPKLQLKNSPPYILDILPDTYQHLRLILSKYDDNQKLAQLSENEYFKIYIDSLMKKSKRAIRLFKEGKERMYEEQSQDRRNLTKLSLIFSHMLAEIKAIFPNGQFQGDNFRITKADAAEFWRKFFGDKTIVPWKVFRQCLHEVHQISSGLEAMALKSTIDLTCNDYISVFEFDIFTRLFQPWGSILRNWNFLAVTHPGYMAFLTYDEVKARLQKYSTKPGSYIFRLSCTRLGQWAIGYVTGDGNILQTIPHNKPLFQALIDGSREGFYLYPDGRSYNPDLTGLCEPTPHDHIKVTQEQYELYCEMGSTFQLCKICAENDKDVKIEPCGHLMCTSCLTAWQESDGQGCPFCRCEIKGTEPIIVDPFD
Sequence of Cbl-b (residues 36-427) (Q13191 36-427): as above

`CC1CCc2c1n[nH]c2C(=O)Nc1cccc([C@H](C)Cc2nncn2C)c1` (stereo partly drawn) [Compound 323, 6-Methyl-N-(3-((R)-1-(4-methyl-4H-1,2,4-triazol-3-yl)propan-2-yl)phenyl)-2,4,5,6-tetrahydrocyclopenta[c]pyrazole-3-carboxamide]: in the assay on T-cell (setting [1]), the fold induction at 1 µM was 0.101 to 0.15 and the fold induction at 8 µM is more than 0.201. In addition, the IC50 at Cbl-b is not above 300 nM. The same compound came in with a Kd on Cbl-b (residues 36-427) of 100 to 300 nM.

As to `Cc1cc(C(=O)Nc2cccc([C@@H](C)Cc3nncn3C)c2)nc(C2CC2)n1` [Compound 325, (S)-2-Cyclopropyl-6-methyl-N-(3-(1-(4-methyl-4H-1,2,4-triazol-3-yl)propan-2-yl)phenyl)pyrimidine-4-carboxamide], in the assay with T-cell (setting [1]), the fold induction at 1 µM was in the range of 0.051 to 0.1 and the fold induction at 8 µM fell in the range of 0.101 to 0.15. Further, the IC50 on Cbl-b was not above 300 nM. For the same compound, the Kd at Cbl-b (residues 36-427) was in the range of 301 to 1000 nM.

Take `Cc1cc(C(=O)Nc2cccc([C@H](C)Cc3nocc3C)c2)nc(C2CC2)n1` [Compound 330, (R)-2-cyclopropyl-6-methyl-N-(3-(1-(4-methylisoxazol-3-yl)propan-2-yl)phenyl)pyrimidine-4-carboxamide]: in the assay on T-cell (setting [1]), the fold induction at 1 µM fell in the range of 0.051 to 0.1 and the fold induction at 8 µM is more than 0.201. At Cbl-b, the half-inhibitory concentration (IC50) was not above 100 nM. Also, the dissociation constant (Kd) at Cbl-b (residues 36-427) lay within 301 to 1000 nM.

On to `Cn1cnnc1CC1(c2cccc(NC(=O)c3nc4c(C(F)(F)F)cccc4[nH]3)c2)COC1` [Compound 335, N-(3-{3-[(4-methyl-1,2,4-triazol-3-yl)methyl]oxetan-3-yl}phenyl)-4-(trifluoromethyl)-1H-1,3-benzodiazole-2-carboxamide], for which, in the assay on T-cell (setting [1]), the fold induction at 1 µM fell in the range of 0.101 to 0.15 and the fold induction at 8 µM was more than 0.201. Moreover, at Cbl-b, the IC50 is not above 100 nM. Besides, at Cbl-b (residues 36-427), the Kd was less than 100 nM.

As to `Cc1cc(C(=O)Nc2cccc(C3(Cc4nncn4C)COC3)c2)nc(C2CC2)n1` [Compound 336, 2-cyclopropyl-6-methyl-N-(3-(3-((4-methyl-4H-1,2,4-triazol-3-yl)methyl)oxetan-3-yl)phenyl)pyrimidine-4-carboxamide], in the assay with T-cell (setting [1]), the fold induction at 1 µM was more than 0.201 and the fold induction at 8 µM is more than 0.201. Also, the half-maximal inhibitory concentration (IC50) at Cbl-b was not above 100 nM. On Cbl-b (residues 36-427), this compound yielded a Kd of less than 100 nM.

As to `C[C@H](Cc1nncn1C)c1cc(NC2COC2)nc(N2Cc3c(cccc3C(F)(F)F)C2=O)c1` [Compound 352, 2-{4-[(2R)-1-(4-methyl-4H-1,2,4-triazol-3-yl)propan-2-yl]-6-[(oxetan-3-yl)amino]pyridin-2-yl}-4-(trifluoromethyl)-2,3-dihydro-1H-isoindol-1-one], in the assay with T-cell (setting [1]), the fold induction at 1 µM fell in the range of 0.051 to 0.1 and the fold induction at 8 µM was more than 0.201. Besides, at Cbl-b, the IC50 was not above 100 nM. Also, on Cbl-b (residues 36-427), the Kd was 100 to 300 nM.

Consider `CC(C)Nc1cc([C@H](C)Cc2nncn2C)cc(N2Cc3c(cccc3C(F)(F)F)C2=O)n1` [Compound 353, 2-{4-[(2R)-1-(4-methyl-4H-1,2,4-triazol-3-yl)propan-2-yl]-6-[(propan-2-yl)amino]pyridin-2-yl}-4-(trifluoromethyl)-2,3-dihydro-1H-isoindol-1-one], for which, in the assay on T-cell (setting [1]), the fold induction at 1 µM lay within 0.101 to 0.15 and the fold induction at 8 µM was more than 0.201. Further, on Cbl-b, the IC50 was not above 100 nM. For the same compound, the Kd at Cbl-b (residues 36-427) was less than 100 nM.

With `CCOc1cc([C@H](C)Cc2nncn2C)cc(N2Cc3c(cccc3C(F)(F)F)C2=O)n1` [Compound 358, (R)-2-(6-ethoxy-4-(1-(4-methyl-4H-1,2,4-triazol-3-yl)propan-2-yl)pyridin-2-yl)-4-(trifluoromethyl)isoindolin-1-one], in the assay with T-cell (setting [1]), the fold induction at 1 µM fell in the range of 0.151 to 0.2 and the fold induction at 8 µM is more than 0.201. Also, the IC50 on Cbl-b was not above 100 nM. The compound also gave a dissociation constant (Kd) on Cbl-b (residues 36-427) of less than 100 nM.

In the case of `CCNc1cc([C@H](C)Cc2nncn2C)cc(N2Cc3c(cccc3C(F)(F)F)C2=O)n1` [Compound 360, (R)-2-(6-(ethylamino)-4-(1-(4-methyl-4H-1,2,4-triazol-3-yl)propan-2-yl)pyridin-2-yl)-4-(trifluoromethyl)isoindolin-1-one], in the assay on T-cell (setting [1]), the fold induction at 1 µM was more than 0.201 and the fold induction at 8 µM was more than 0.201. At Cbl-b, the IC50 was not above 100 nM. This compound yielded a dissociation constant Kd at Cbl-b (residues 36-427) of less than 100 nM.

As to `CNc1cc([C@H](C)Cc2nncn2C)cc(N2Cc3c(cccc3C(F)(F)F)C2=O)n1` [Compound 363, (R)-2-(4-(1-(4-methyl-4H-1,2,4-triazol-3-yl)propan-2-yl)-6-(methylamino)pyridin-2-yl)-4-(trifluoromethyl)isoindolin-1-one], in the assay with T-cell (setting [1]), the fold induction at 1 µM was 0.051 to 0.1 and the fold induction at 8 µM is 0.151 to 0.2. Also, the concentration for half-maximal inhibition (IC50) at Cbl-b was not above 100 nM. In addition, on Cbl-b (residues 36-427), the Kd was less than 100 nM.

With `C[C@H](c1cc2c(c(C(F)(F)F)c1)CN(c1cccc(C3(C(F)(F)c4nncn4C)COC3)c1)C2=O)N1CC[C@H](F)C1` [Example 571, 2-(3-(3-(difluoro(4-methyl-4H-1,2,4-triazol-3-yl)methyl)oxetan-3-yl)phenyl)-6-((R)-1-((S)-3-fluoropyrrolidin-1-yl)ethyl)-4-(trifluoromethyl)isoindolin-1-one], the fold induction at 1 µM with T-cell (setting [2]) was more than 0.201. The half-maximal inhibitory concentration (IC50) on Cbl-b is not above 100 nM. In addition, the Kd at Cbl-b (residues 36-427) is less than 100 nM.

Turning to `C[C@H](c1cc2c(c(C(F)(F)F)c1)CN(c1cccc(C3([C@@H](F)c4nncn4C)COC3)c1)C2=O)N1CCC2(CC2)C1` [Example 576, 6-((R)-1-(5-azaspiro[2.4]heptan-5-yl)ethyl)-2-(3-(3-((R)-fluoro(4-methyl-4H-1,2,4-triazol-3-yl)methyl)oxetan-3-yl)phenyl)-4-(trifluoromethyl)isoindolin-1-one], the fold induction at 1 µM in the assay on T-cell (setting [2]) was more than 0.201. In addition, the IC50 on Cbl-b is not above 100 nM. The compound also returned an equilibrium dissociation constant (Kd) on Cbl-b (residues 36-427) of less than 100 nM.

With `Cn1cnnc1CC1(c2cccc(N3Cc4c(cc(CN5CCC(C)(F)CC5)cc4C(F)(F)F)C3=O)c2)COC1` [Example 620, 6-((4-fluoro-4-methylpiperidin-1-yl)methyl)-2-(3-(3-((4-methyl-4H-1,2,4-triazol-3-yl)methyl)oxetan-3-yl)phenyl)-4-(trifluoromethyl)isoindolin-1-one], the fold induction at 1 µM in the assay with T-cell (setting [2]) was more than 0.201. Besides, the IC50 on Cbl-b is not above 100 nM. At Cbl-b (residues 36-427), this compound registered a Kd of less than 100 nM.

With `Cn1cnnc1[C@@H](F)C1(c2cccc(N3Cc4c(cc(CN5CCC(F)CC5)cc4C(F)(F)F)C3=O)c2)COC1` [Example 670a, (S)-2-(3-(3-(fluoro(4-methyl-4H-1,2,4-triazol-3-yl)methyl)oxetan-3-yl)phenyl)-6-((4-fluoropiperidin-1-yl)methyl)-4-(trifluoromethyl)isoindolin-1-one], the fold induction at 1 µM in the assay on T-cell (setting [2]) was more than 0.201. Besides, the IC50 at Cbl-b was not above 100 nM. Further, at Cbl-b (residues 36-427), the Kd was less than 100 nM.

As to `Cn1cnnc1[C@H](F)C1(c2cccc(N3Cc4c(cc(CN5CCC(F)CC5)cc4C(F)(F)F)C3=O)c2)COC1` [Example 670b, (R)-2-(3-(3-(fluoro(4-methyl-4H-1,2,4-triazol-3-yl)methyl)oxetan-3-yl)phenyl)-6-((4-fluoropiperidin-1-yl)methyl)-4-(trifluoromethyl)isoindolin-1-one], in the assay on T-cell (setting [2]), the fold induction at 1 µM is more than 0.201. On Cbl-b, the 50% inhibitory concentration (IC50) is not above 100 nM. At Cbl-b (residues 36-427), this compound displayed a Kd of less than 100 nM.

Broadly, the IC50 is the midpoint of a concentration-inhibition curve. Broadly, the Kd is the free concentration of one partner at which half of the binding sites on the other are occupied at equilibrium, for simple one-to-one binding.

The values above are taken from US20220324835A1 (Nurix Therapeutics, Inc., priority 2018, published 2022).
